As a reminder, the IC50 is the concentration needed to halve the response being measured. A higher IC50 goes with weaker potency.

The results in this text go back to ChEMBL document CHEMBL1128809 (Bioorg Med Chem Lett, 1995).

The target in series [1] is Protein kinase C alpha type (Homo sapiens, UniProt P17252). Briefly: Inhibition of Protein kinase C alpha.
Series [2] concerns the target T1, Protein kinase C epsilon type (Homo sapiens, UniProt Q02156).
T1 sequence (Q02156 whole entry): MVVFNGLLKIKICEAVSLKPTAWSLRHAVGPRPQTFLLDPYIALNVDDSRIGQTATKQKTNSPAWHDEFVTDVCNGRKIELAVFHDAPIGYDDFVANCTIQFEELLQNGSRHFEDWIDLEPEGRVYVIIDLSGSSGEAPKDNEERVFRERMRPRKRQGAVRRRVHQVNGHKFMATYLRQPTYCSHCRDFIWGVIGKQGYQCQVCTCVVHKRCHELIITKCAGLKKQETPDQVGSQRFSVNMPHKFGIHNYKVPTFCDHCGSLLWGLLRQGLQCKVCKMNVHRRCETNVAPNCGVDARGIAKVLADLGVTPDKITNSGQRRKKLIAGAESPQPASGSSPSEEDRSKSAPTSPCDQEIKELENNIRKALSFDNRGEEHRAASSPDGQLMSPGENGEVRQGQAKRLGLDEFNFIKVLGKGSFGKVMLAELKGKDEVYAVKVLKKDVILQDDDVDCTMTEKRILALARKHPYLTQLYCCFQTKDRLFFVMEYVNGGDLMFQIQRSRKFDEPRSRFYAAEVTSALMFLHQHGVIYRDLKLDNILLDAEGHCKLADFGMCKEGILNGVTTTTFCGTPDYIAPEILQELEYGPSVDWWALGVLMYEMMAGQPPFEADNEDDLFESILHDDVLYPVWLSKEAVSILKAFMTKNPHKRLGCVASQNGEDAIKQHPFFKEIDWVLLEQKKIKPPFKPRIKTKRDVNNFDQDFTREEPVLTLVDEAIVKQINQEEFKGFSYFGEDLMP
In words: Inhibition of Protein kinase C epsilon.

Series [3] addresses T2, Protein kinase C zeta type (Homo sapiens, UniProt Q05513).
T2 sequence (Q05513 whole entry): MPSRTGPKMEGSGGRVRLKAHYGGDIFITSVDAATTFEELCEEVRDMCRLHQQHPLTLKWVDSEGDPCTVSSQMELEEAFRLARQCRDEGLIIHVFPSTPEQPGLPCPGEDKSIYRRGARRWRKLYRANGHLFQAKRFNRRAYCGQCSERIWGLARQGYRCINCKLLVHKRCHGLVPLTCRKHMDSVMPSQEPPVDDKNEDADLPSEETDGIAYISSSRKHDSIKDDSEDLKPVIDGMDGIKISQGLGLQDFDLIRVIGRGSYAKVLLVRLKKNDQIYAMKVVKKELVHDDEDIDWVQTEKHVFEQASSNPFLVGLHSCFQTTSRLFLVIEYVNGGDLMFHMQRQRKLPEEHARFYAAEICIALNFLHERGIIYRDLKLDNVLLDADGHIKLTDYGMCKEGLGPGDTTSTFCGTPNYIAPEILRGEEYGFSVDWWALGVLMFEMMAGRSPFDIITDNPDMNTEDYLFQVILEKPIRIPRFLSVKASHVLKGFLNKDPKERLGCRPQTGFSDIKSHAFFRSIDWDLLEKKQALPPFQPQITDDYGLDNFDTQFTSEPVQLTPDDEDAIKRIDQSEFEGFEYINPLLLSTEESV
Briefly: Inhibition of Protein kinase C zeta.

Series [4] deals with Protein kinase C eta type (Homo sapiens, UniProt P24723). In words: Inhibition of Protein kinase C eta.
Sequence of Protein kinase C eta type (P24723 whole entry): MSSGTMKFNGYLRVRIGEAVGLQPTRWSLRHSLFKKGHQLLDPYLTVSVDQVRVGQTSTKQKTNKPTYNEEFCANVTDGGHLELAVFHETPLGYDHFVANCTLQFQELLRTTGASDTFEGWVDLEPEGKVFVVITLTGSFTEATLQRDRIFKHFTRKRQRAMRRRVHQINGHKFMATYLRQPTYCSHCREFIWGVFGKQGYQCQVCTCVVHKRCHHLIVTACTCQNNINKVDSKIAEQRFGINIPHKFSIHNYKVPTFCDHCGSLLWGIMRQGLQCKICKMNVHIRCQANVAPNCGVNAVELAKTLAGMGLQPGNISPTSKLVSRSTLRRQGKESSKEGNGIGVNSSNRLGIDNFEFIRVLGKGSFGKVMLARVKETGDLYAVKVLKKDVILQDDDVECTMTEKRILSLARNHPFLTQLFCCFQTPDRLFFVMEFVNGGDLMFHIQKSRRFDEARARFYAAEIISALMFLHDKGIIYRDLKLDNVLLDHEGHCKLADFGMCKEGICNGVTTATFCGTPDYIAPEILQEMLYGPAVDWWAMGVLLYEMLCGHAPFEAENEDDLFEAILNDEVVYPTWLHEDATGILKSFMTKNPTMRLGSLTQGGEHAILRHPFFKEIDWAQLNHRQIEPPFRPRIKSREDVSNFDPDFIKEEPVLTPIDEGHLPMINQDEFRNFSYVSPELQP
Series [5] deals with Protein kinase C delta type (Homo sapiens, UniProt Q05655). Briefly: Inhibition of Protein kinase C delta.
Sequence of Protein kinase C delta type (Q05655 whole entry): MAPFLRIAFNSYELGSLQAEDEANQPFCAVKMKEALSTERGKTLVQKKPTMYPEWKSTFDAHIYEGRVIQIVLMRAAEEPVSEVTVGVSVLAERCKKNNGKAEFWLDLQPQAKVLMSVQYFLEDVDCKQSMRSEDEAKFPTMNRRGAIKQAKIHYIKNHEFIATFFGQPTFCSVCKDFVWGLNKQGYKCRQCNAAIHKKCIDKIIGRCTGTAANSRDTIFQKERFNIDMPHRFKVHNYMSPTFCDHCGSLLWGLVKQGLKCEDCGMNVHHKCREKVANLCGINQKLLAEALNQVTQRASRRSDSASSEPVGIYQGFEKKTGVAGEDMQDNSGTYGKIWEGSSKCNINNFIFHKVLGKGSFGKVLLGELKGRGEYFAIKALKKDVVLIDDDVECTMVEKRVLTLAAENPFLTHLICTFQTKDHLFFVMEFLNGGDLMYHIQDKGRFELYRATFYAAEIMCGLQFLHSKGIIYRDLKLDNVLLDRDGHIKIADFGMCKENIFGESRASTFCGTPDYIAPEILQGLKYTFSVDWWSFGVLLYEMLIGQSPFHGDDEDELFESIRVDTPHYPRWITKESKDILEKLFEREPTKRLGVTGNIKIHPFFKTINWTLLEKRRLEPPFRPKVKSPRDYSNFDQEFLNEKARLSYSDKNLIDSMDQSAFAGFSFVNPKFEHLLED
Series [6] addresses T3, Protein kinase C beta type (Homo sapiens, UniProt P05771). Briefly: Inhibition of Protein kinase C beta 1.
The target of series [7] is Protein kinase C gamma type (Homo sapiens, UniProt P05129). In words: Inhibition of Protein kinase C gamma.
Series [8] concerns the target T3, Protein kinase C beta type. In words: Inhibition of Protein kinase C beta 2.
A short description of series [9]: Stability in human plasma 4 hr after incubation expressed as percent concentration. Particulars: read-out: Concentration. The format is ADME, cell-free.
Series [10] is described as follows: Stability in human plasma 2 hr after incubation expressed as percent concentration. The settings on record: read-out: Concentration. The format is ADME, cell-free.

T3 sequence (P05771 whole entry): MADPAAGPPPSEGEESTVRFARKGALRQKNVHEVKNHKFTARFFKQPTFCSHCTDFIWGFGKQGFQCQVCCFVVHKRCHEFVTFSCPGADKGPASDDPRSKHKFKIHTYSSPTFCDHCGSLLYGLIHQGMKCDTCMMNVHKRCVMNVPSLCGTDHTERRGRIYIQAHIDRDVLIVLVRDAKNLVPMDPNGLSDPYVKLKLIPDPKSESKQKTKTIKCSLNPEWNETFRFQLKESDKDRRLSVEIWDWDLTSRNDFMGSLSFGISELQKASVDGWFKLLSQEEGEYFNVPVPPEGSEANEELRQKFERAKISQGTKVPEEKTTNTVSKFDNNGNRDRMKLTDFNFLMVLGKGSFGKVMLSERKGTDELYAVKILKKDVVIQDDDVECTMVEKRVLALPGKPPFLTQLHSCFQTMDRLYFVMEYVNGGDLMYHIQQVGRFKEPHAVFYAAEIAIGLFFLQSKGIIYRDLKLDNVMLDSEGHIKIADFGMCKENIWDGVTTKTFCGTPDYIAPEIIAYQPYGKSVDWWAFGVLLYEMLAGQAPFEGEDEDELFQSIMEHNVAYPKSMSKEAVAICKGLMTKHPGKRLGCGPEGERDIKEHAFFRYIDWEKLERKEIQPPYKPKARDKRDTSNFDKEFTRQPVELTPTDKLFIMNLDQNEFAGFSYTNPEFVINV

`O=C(N[C@@H]1CCC[C@H]1COC(=O)c1cc(O)c(C(=O)c2c(O)cccc2C(=O)O)c(O)c1)c1ccc(O)cc1`: the half-inhibitory concentration (IC50) in series [1] was 40 nM; in [2], 340 nM; in series [3], greater than 50000 nM; in series [4] it was 20 nM; in series [5], 20 nM; in [6], 40 nM. In addition, the IC50 was determined as 300 nM in [7] and 30 nM in series [8].

On to `O=C(N[C@@H]1CNC[C@H]1OC(=O)c1cc(O)c(C(=O)c2c(O)cccc2C(=O)O)c(O)c1)c1ccc(O)cc1`, for which the IC50 in series [3] came out at 6800 nM; in series [6], 10 nM; in series [7], 12 nM. The remaining at 4 h in series [9] is 103%. Further, the remaining at 2 h in series [10] was found to be 88%.

Regarding `O=C(N[C@@H]1CCC[C@H]1OC(=O)c1cc(O)c(C(=O)c2c(O)cccc2C(=O)O)c(O)c1)c1ccc(O)cc1`, the IC50 in series [4] and in series [5] was 1 nM each time.

Turning to `O=C(N[C@@H]1CNCCC[C@H]1OC(=O)c1cc(O)c(C(=O)c2c(O)cccc2C(=O)O)c(O)c1)c1ccc(O)cc1` [BALANOL], the IC50 was found to be 30 nM in series [1]; 5900 nM in [3]; 3 nM in series [4]; 16 nM in series [5]; 10 nM in [6]; 10 nM in series [7]. Also, inhibition in [8] was half-maximal at 10 nM (IC50).

Take `O=C(NC[C@@H]1CCC[C@H]1NC(=O)c1ccc(O)cc1)c1cc(O)c(C(=O)c2c(O)cccc2C(=O)O)c(O)c1`: the IC50 in [1] was 35000 nM; in series [2], greater than 50000 nM; in [3], greater than 50000 nM; in series [4] it was 2300 nM; in series [5], 330 nM; in [6], 17000 nM. For the same compound, the values for the IC50 in series [7] and in series [8] were 46000 nM and 4900 nM, respectively.

`O=C(N[C@@H]1CNCCC[C@H]1OC(=O)c1cc(O)c(C(=O)c2c(O)cccc2C(=O)O)c(O)c1)c1ccc(O)cc1` (racemic) [BALANOL]: the concentration for half-maximal inhibition (IC50) in [1] worked out at 67 nM; in series [4], 20 nM; in series [5], 23 nM; in series [6] it was 30 nM; in series [7] it was 30 nM; in series [8] it was 30 nM.

Consider `O=C(N[C@@H]1CCC[C@H]1OCc1cc(O)c(C(=O)c2c(O)cccc2C(=O)O)c(O)c1)c1ccc(O)cc1`, for which the half-inhibitory concentration (IC50) is 460 nM in series [1]; 370 nM in series [2]; greater than 50000 nM in [3]; 30 nM in series [4]; 20 nM in series [5]; 430 nM in series [6]. Besides, the IC50 in series [7] worked out at 1100 nM; in series [8] it was 290 nM. In addition, in series [9], the remaining at 4 h was determined as 100%. Further, in series [10], the remaining at 2 h is 100%.

Take `O=C(N[C@@H]1CNC[C@H]1NC(=O)c1cc(O)c(C(=O)c2c(O)cccc2C(=O)O)c(O)c1)c1ccc(O)cc1`: the IC50 in [1] stood at 920 nM; in series [2] it was 80 nM; in [3], 9600 nM; in [4] it was 3 nM; in series [5] it was 12 nM; in series [6], 220 nM. Besides, the IC50 in series [7] and in series [8] was 330 nM in each case. Further, the remaining at 4 h in [9] stood at 104%. Further, the remaining at 2 h in series [10] was determined as 95%.

Turning to `O=C(N[C@@H]1CCCNC[C@H]1NC(=O)c1ccc(O)cc1)c1cc(O)c(C(=O)c2c(O)cccc2C(=O)O)c(O)c1`, the IC50 was 3200 nM in series [1]; 670 nM in series [2]; greater than 50000 nM in series [3]; 50 nM in series [4]; 220 nM in series [5]; 630 nM in series [6]. Moreover, the figures for the IC50 in [7] and in series [8] were 420 nM and 1200 nM, respectively.

`CN(C(=O)c1cc(O)c(C(=O)c2c(O)cccc2C(=O)O)c(O)c1)[C@H]1CCCNC[C@H]1NC(=O)c1ccc(O)cc1`: the IC50 in series [1] is greater than 50000 nM; in series [2] it was greater than 50000 nM; in [3], greater than 50000 nM; in series [4], 31000 nM; in [5], 42000 nM; in series [6] it was greater than 50000 nM. Also, the IC50 in series [7] and in series [8] was greater than 50000 nM each time.

As to `C[C@@]1(OC(=O)c2cc(O)c(C(=O)c3c(O)cccc3C(=O)O)c(O)c2)CCCNC[C@H]1NC(=O)c1ccc(O)cc1`, the IC50 in series [1] turned out to be 220 nM; in [2], 50 nM; in [4], 20 nM; in series [5], 30 nM; in series [6] it was 120 nM; in series [7], 40 nM. The compound further returned an IC50 in series [8] of 70 nM.
